Results on 14 compounds are retold here after paper PMC8605023 (Nature Communications, 2021).

What all share (assay): biochemical
What all share (type): binding

One experiment concerns the target T1, NTF2 domain of G3BP1 (Homo sapiens, UniProt Q13283).
T1 construct: made in house; host or cells: E. coli BL21-Gold(DE3)

The next experiment concerns the target T2, NTF2 domain of G3BP2 (Homo sapiens, UniProt Q9UN86).
T2 construct: made in house; host or cells: E. coli BL21-Gold(DE3)
T2 sequence (Q9UN86 11-133 limits assumed): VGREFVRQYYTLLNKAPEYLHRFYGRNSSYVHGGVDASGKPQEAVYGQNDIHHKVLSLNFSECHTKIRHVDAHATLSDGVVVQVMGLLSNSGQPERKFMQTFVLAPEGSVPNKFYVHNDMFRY

The next experiment addresses T3, MAP1LC3C (Homo sapiens, UniProt Q9BXW4).
T3 construct: His-GST (cleaved yes); made in house; host or cells: E. coli BL21-Gold(DE3)

For a further experiment, the target named is T4, USP7 (Homo sapiens, UniProt Q93009).
T4 construct: His-GST (cleaved yes); made in house; host or cells: E. coli BL21-Gold(DE3)
T4 sequence (Q93009 63-205 limits assumed): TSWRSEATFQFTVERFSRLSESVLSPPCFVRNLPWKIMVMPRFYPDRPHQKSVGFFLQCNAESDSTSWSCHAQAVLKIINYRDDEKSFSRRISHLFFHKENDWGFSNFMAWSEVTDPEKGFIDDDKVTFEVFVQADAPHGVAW

Peptide text beside a SMILES is read from it.

T3 sequence (Q9BXW4 1-126 limits assumed): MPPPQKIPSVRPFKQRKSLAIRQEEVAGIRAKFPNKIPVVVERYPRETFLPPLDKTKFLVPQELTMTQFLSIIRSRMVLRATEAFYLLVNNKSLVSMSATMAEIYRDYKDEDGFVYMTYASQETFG
T1 sequence (Q13283 11-133 limits assumed): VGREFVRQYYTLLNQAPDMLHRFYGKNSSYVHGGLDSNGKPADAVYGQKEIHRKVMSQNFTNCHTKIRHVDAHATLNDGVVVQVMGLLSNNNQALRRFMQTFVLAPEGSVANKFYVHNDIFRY

Compound `CC(=O)N[C@@H](CC(N)=O)C(=O)N[C@@H](CC(C)C)C(=O)N[C@@H](CCC(N)=O)C(=O)N[C@@H](Cc1ccccc1)C(=O)NCC(=O)N[C@@H](C)C(=O)N[C@@H](CC(C)C)C(=O)N[C@@H](CCC(N)=O)C(=O)N[C@@H](Cc1ccccc1)C(=O)NCC(=O)N[C@@H](CO)C(=O)N[C@@H](CCC(=O)O)C(=O)N1CCC[C@H]1C(=O)N[C@H](C(=O)N[C@@H](Cc1ccc(O)cc1)C(=O)O)C(C)C` [UBAP2L 515-528 Human] (Ac-NLQFGALQFGSEPVY-OH) yielded a Ki at NTF2 domain of G3BP1 of 34 µM. In addition, on NTF2 domain of G3BP2, the affinity, expressed as Kd, was 34 µM.

As to `CC[C@H](C)[C@H](NC(=O)[C@H](CCCNC(=N)N)NC(=O)[C@@H]1CCCN1C(=O)[C@H](C)NC(C)=O)C(=O)N[C@H](C(=O)N[C@@H](Cc1ccccc1)C(=O)NCC(=O)NCC(=O)N1CCC[C@H]1C(=O)N[C@H](C(=O)N[C@@H](CC(=O)O)C(=O)N[C@@H](CO)C(=O)N[C@H](C(=O)N[C@@H](CC(=O)O)C(=O)N[C@@H](CC(N)=O)C(=O)N[C@@H](Cc1ccc(O)cc1)C(N)=O)[C@@H](C)O)[C@@H](C)O)[C@@H](C)O` [N 13-27 Sars-CoV] (Ac-APRITFGGPTDSTDNY-NH2), the IC50 against NTF2 domain of G3BP1 came out at 10 µM.

On MAP1LC3C, `CC(C)C[C@H](NC(=O)[C@@H](NC(=O)[C@H](CCC(=O)O)NC(=O)[C@H](Cc1ccccc1)NC(=O)[C@H](CO)NC(=O)[C@H](CC(N)=O)NC(=O)[C@H](CO)NC(=O)[C@@H](NC(=O)[C@H](CC(=O)O)NC(=O)[C@@H](N)C(C)C)[C@@H](C)O)C(C)C)C(=O)N[C@@H](C)C(=O)N[C@H](C(=O)N[C@@H](CCC(=O)O)C(=O)N[C@@H](CC(=O)O)C(=O)N[C@H](C(=O)N[C@@H](CCC(N)=O)C(=O)N[C@@H](Cc1ccc(O)cc1)C(=O)O)[C@@H](C)O)C(C)C` [NSP3 1996-2011 Sars-CoV] had an IC50 of 200 µM, a Kd of 28 ± 1 µM and an inhibition constant (Ki) of 28 µM. At USP7, this compound came in with an IC50 of 210 µM, a Kd of 29 ± 2 µM and a Ki of 29 µM.

On NTF2 domain of G3BP1, `CC(=O)N1CCC[C@H]1C(=O)N[C@@H](CO)C(=O)N[C@@H](CCCCN)C(=O)N[C@@H](CC(C)C)C(=O)N1CCC[C@H]1C(=O)N[C@H](C(=O)N[C@@H](Cc1ccccc1)C(=O)NCC(=O)N[C@@H](C)C(=O)N1CCC[C@H]1C(=O)N[C@@H](CCC(=O)O)C(=O)N[C@@H](CCC(N)=O)C(=O)N[C@@H](CC(C)C)C(=O)N[C@H](C(=O)N[C@@H](CC(=O)O)C(=O)N[C@@H](Cc1ccc(O)cc1)C(N)=O)C(C)C)[C@@H](C)O` [TRIM25 400-414 Human] (Ac-PSKLPTFGAPEQLVDY-NH2) gave a Ki of 46 µM. Also, on NTF2 domain of G3BP2, the IC50 was 53 µM and the Kd was 46 µM.

At NTF2 domain of G3BP1, `CC(=O)N[C@@H](CCC(=O)O)C(=O)N[C@@H](CO)C(=O)N[C@@H](CC(C)C)C(=O)N1CCC[C@H]1C(=O)N[C@@H](Cc1ccccc1)C(=O)N[C@@H](CO)C(=O)N[C@@H](Cc1ccccc1)C(=O)NCC(=O)N[C@H](C(=O)N[C@@H](CC(C)C)C(=O)N[C@@H](CO)C(=O)N[C@@H](CO)C(=O)N[C@@H](Cc1c[nH]c2ccccc12)C(=O)N[C@@H](CCC(=O)O)C(=O)N[C@@H](CC(C)C)C(=O)N[C@@H](CCC(=O)O)C(=O)O)[C@@H](C)O` [DDIT3 4-19 Human] (Ac-ESLPFSFGTLSSWELE-OH) displayed an IC50 of 44 µM and a Ki of 14 µM. On NTF2 domain of G3BP2, this compound showed a Kd of 14 µM.

On NTF2 domain of G3BP1, `CC[C@H](C)[C@H](NC(=O)[C@@H]1CCCN1C(=O)[C@@H]1CCCN1C(=O)[C@@H](NC(=O)[C@@H]1CCCN1C(C)=O)C(C)C)C(=O)N[C@@H](CCC(=O)O)C(=O)N[C@@H](Cc1ccccc1)C(=O)NCC(=O)N[C@H](C(=O)N[C@@H](CO)C(=O)N1CCC[C@H]1C(=O)N[C@@H](CCCCN)C(=O)N[C@@H](CC(=O)O)C(=O)N[C@@H](CO)C(=O)N[C@@H](CC(=O)O)C(=O)N[C@@H](Cc1ccc(O)cc1)C(N)=O)C(C)C` [PRRC2B 1780-1794 Human] (Ac-PVPPIEFGVSPKDSDY-NH2) returned an IC50 of 33 µM and a Ki of 10 µM. Further, on NTF2 domain of G3BP2, inhibition was half-maximal at 53 µM (IC50) and the Kd was found to be 10 µM.

At NTF2 domain of G3BP1, `CC(=O)N[C@@H](C)C(=O)N1CCC[C@H]1C(=O)N[C@@H](CCCNC(=N)N)C(=O)N[C@@H](C)C(=O)N[C@H](C(=O)N[C@H](C(=O)N[C@@H](Cc1ccccc1)C(=O)NCC(=O)N[C@@H](CC(=O)O)C(=O)N[C@@H](CC(N)=O)C(=O)N[C@@H](CC(N)=O)C(=O)N[C@@H](CC(=O)O)C(=O)N[C@@H](CC(N)=O)C(=O)N[C@@H](CC(N)=O)C(=O)N[C@H](C(=O)N[C@@H](Cc1ccc(O)cc1)C(N)=O)[C@@H](C)O)[C@@H](C)O)C(C)C` [N 6-20 Mers1] (Ac-APRAVTFGDNNDNNTY-NH2) had a Kd of 51 ± 2 µM and a Ki of 51 µM. At NTF2 domain of G3BP2, the affinity, expressed as Kd, was 26 µM and the affinity, expressed as Ki, was 26 µM.

On NTF2 domain of G3BP1, `CC[C@H](C)[C@H](NC(=O)[C@H](CCCNC(=N)N)NC(=O)[C@@H]1CCCN1C(=O)[C@H](C)NC(C)=O)C(=O)N[C@H](C(=O)N[C@@H](Cc1ccccc1)C(=O)NCC(=O)NCC(=O)N1CCC[C@H]1C(=O)N[C@@H](CO)C(=O)N[C@@H](CC(=O)O)C(=O)N[C@@H](CO)C(=O)N[C@H](C(=O)NCC(=O)N[C@@H](CO)C(=O)N[C@@H](Cc1ccc(O)cc1)C(N)=O)[C@@H](C)O)[C@@H](C)O` [N 12-26 Sars-CoV2] (Ac-APRITFGGPSDSTGSY-NH2) had an IC50 of 17 µM, a Kd of 4 µM and a Ki of 4 µM. In addition, the IC50 at NTF2 domain of G3BP2 turned out to be 10 µM.

For the compound `CC[C@H](C)[C@H](NC(=O)CNC(=O)[C@H](CO)NC(=O)[C@H](C)NC(=O)[C@H](CC(C)C)NC(=O)[C@H](C)NC(=O)[C@H](CC(=O)O)NC(C)=O)C(=O)N[C@H](C(=O)N[C@@H](Cc1ccccc1)C(=O)NCC(=O)N[C@@H](CC(=O)O)C(=O)N[C@@H](Cc1ccccc1)C(=O)N[C@@H](CC(=O)O)C(=O)N[C@@H](CC(=O)O)C(=O)N[C@@H](Cc1ccc(O)cc1)C(N)=O)[C@@H](C)O` [NSP3 1796-1809 SFV], at NTF2 domain of G3BP2, the IC50 amounted to 11 µM.

At NTF2 domain of G3BP1, `CC[C@H](C)[C@H](NC(=O)[C@H](Cc1ccccc1)NC(=O)[C@H](CC(N)=O)NC(=O)[C@H](Cc1ccc(O)cc1)NC(=O)[C@@H]1CCCN1C(=O)CNC(=O)[C@H](CCC(N)=O)NC(=O)[C@H](CCSC)NC(=O)[C@H](CCC(N)=O)NC(=O)[C@H](C)NC(C)=O)C(=O)N[C@@H](CCC(N)=O)C(=O)N[C@@H](CC(=O)O)C(=O)N[C@@H](CO)C(=O)N[C@@H](CCSC)C(=O)N[C@@H](CC(C)C)C(=O)N[C@@H](CC(=O)O)C(N)=O` [CAPRIN1 364-379 Human] (Ac-AQMQGPYNFIQDSMLD-NH2) yielded an IC50 of 46 µM. In addition, at NTF2 domain of G3BP2, the Kd turned out to be 174 µM.

For `CC[C@H](C)[C@H](NC(=O)CNC(=O)[C@H](CO)NC(=O)[C@H](C)NC(=O)[C@H](CC(C)C)NC(=O)[C@H](C)NC(=O)[C@H](CC(=O)O)NC(=O)[C@@H](NC(=O)[C@H](CCC(=O)O)NC(=O)[C@H](Cc1c[nH]cn1)NC(=O)[C@H](CCC(=O)O)NC(=O)[C@H](CC(=O)O)NC(=O)[C@H](Cc1ccccc1)NC(=O)[C@H](CC(=O)O)NC(=O)CNC(=O)[C@H](Cc1ccccc1)NC(=O)[C@@H](NC(=O)[C@H](CC(C)C)NC(C)=O)[C@@H](C)O)C(C)C)C(=O)N[C@H](C(=O)N[C@@H](Cc1ccccc1)C(=O)NCC(=O)N[C@@H](CC(=O)O)C(=O)N[C@@H](Cc1ccccc1)C(=O)N[C@@H](CC(=O)O)C(=O)N[C@@H](CC(=O)O)C(=O)N[C@@H](Cc1ccc(O)cc1)C(N)=O)[C@@H](C)O` [NSP3 1785-1809 SFV], at NTF2 domain of G3BP1, binding was put at a Kd of 0.3 µM; the affinity, expressed as Ki, was 0.3 µM; the “binds stronger than the SARS-CoV-2 N peptide to both G3BP1 and G3BP2 (fold)” value is recorded as “approximately 10 fold”. For the same compound, the Ki on NTF2 domain of G3BP2 is 0.15 µM.

Regarding `CC(=O)N[C@@H](CCC(N)=O)C(=O)NCC(=O)N[C@@H](CC(C)C)C(=O)N1CCC[C@H]1C(=O)N[C@@H](CC(C)C)C(=O)N[C@@H](CCC(=O)O)C(=O)N[C@@H](Cc1ccccc1)C(=O)NCC(=O)N[C@@H](C)C(=O)N[C@@H](CO)C(=O)N[C@@H](C)C(=O)N[C@@H](CCC(=O)O)C(=O)N[C@H](C(=O)N[C@H](C(=O)N[C@@H](CCCNC(=N)N)C(=O)N[C@@H](Cc1ccc(O)cc1)C(N)=O)C(C)C)[C@@H](C)O` [NSP3 958-972 Sars-CoV], on NTF2 domain of G3BP1, the Kd stood at 119 ± 5 µM and affinity was put at a Ki of 119 µM. At NTF2 domain of G3BP2, binding was characterised by a dissociation constant (Kd) of 47 ± 2 µM and the Ki came out at 47 µM.

At NTF2 domain of G3BP2, `CC(=O)N[C@@H](CCC(N)=O)C(=O)NCC(=O)N[C@@H](CCCCN)C(=O)N1CCC[C@H]1C(=O)N[C@@H](CC(C)C)C(=O)N[C@@H](CCC(=O)O)C(=O)N[C@@H](Cc1ccccc1)C(=O)NCC(=O)N[C@@H](C)C(=O)N[C@H](C(=O)N[C@@H](CO)C(=O)N[C@@H](C)C(=O)N[C@@H](C)C(=O)N[C@@H](CC(C)C)C(=O)N[C@@H](CCC(N)=O)C(=O)N[C@@H](Cc1ccc(O)cc1)C(N)=O)[C@@H](C)O` [NSP3 956-971 Sars-CoV2] gave a Kd of 35 ± 13 µM and a Ki of 35 µM.

As to `CC(=O)N[C@@H](CC(C)C)C(=O)N[C@H](C(=O)N[C@@H](Cc1ccccc1)C(=O)NCC(=O)N[C@@H](CC(=O)O)C(=O)N[C@@H](Cc1ccccc1)C(=O)N[C@@H](CC(=O)O)C(=O)N[C@@H](CCC(=O)O)C(=O)N[C@@H](Cc1c[nH]cn1)C(=O)N[C@@H](CCC(=O)O)C(=O)N[C@H](C(=O)N[C@@H](CC(=O)O)C(=O)N[C@@H](Cc1ccc(O)cc1)C(N)=O)C(C)C)[C@@H](C)O` [NSP3 1785-1796 SFV], the IC50 at NTF2 domain of G3BP1 was determined as 23 µM; against NTF2 domain of G3BP2, 13 µM.

One may read the Ki as a measure of affinity in units of concentration, obtained from inhibition or displacement. Low values mean higher affinity, high ones lower affinity. What is called Kd is the equilibrium constant for the complex coming apart. What is called IC50 is the concentration that gives 50% inhibition. Lower therefore signals inhibition by little substance.
